The source of these data is patent publication US20210220356A1, “DIHYDROPYRIMIDINE DERIVATIVES AND USES THEREOF IN THE TREATMENT OF HBV INFECTION OR OF HBV-INDUCED DISEASES” (Janssen Sciences Ireland Unlimited Company, priority 2018, published 2021).

Common to all, as to format: cell-based
The subject of one data set is HBV. Nature of the data set: HBV inhibitory activity in HepG2.2.15 cells (HBV DNA in culture medium by q-PCR). To be noted: HepG2.2.15 cells, 40,000 cells/well, 6 days of compound treatment, HBV DNA in culture medium by q-PCR, highest concentration 10 uM, read-out: EC50. Put shortly:
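HepG2.2.15 cells (40,000/well, 2% FBS) treated 6 days with compounds, medium refreshed once; 8 points, 3-fold dilution, top 10 uM. Secreted HBV DNA in medium extracted and quantified by q-PCR; EC50 calculated from dose-response.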

Data set [1] is described as follows: Cytotoxicity determination in HepG2.2.15 cells (CCK-8). The note with it: human, HepG2.2.15 cells, HepG2.2.15 cells, 5,000 cells/well, 6 days of compound treatment, CCK-8 absorbance 450 nm, highest concentration 100 uM. In short, it runs like this: (§1)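 HepG2.2.15 cells, 5,000/well in 2% FBS medium, treated 6 days with compound (medium refreshed midway), 8-point 3-fold dilutions from 100 uM top. Viability read by CCK-8, 2.5 h at 37° C, absorbance 450 nm with 630 nm reference; CC50 from curve fitting.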

In another data set the test system is HepG2.2.15 cells. The data set is described as above. To be noted: HepG2.2.15 cells, 5,000 cells/well, 6 days of compound treatment, CCK-8 absorbance 450 nm, highest concentration 100 uM. In short, it runs like this:
as §1

The mark [2] stands for this setting: Hepatitis B virus, HepG2.2.15, 144 h.

Read-outs that look alike come from different tables or passages of the source.

`COC(=O)C1=C(C2CCc3nc([C@H]4C[C@H](C(=O)O)C4)oc3C2)NC(c2nccs2)=NC1c1ccc(F)c(F)c1Cl` (single isomer, unassigned) [Compound 72b, (trans)-3-(6-(6-(2-Chloro-3,4-difluorophenyl)-5-(methoxycarbonyl)-2-(thiazol-2-yl)-3,6-dihydropyrimidin-4-yl)-4,5,6,7-tetrahydrobenzo[d]oxazol-2-yl)cyclobutanecarboxylic acid]: the EC50 in the data set with HBV amounted to 21.5 nM. The compound also came in with a half-maximal cytotoxic concentration (CC50) at 6 days in data set [1] of 7000 nM.

As to `COC(=O)C1=C(C2CCc3nn(CCC(=O)O)cc3C2)NC(c2nccs2)=NC1c1ccc(F)c(F)c1Br` (single isomer, unassigned) [Compound 46a, 3-(5-(6-(2-Bromo-3,4-difluorophenyl)-5-(methoxycarbonyl)-2-(thiazol-2-yl)-3,6-dihydropyrimidin-4-yl)-4,5,6,7-tetrahydro-2H-indazol-2-yl)propanoic acid], in the data set on HBV, the EC50 is 219 nM. For the same compound, the CC50 at 6 days in data set [1] worked out at 17300 nM.

For the compound `COC(=O)C1=C(C2CCc3nn(CCC(=O)O)cc3C2)NC(c2nccs2)=NC1c1ccc(F)cc1C` (stereo not shown) [Compound 80c, 3-(5-(6-(4-fluoro-2-methylphenyl)-5-(methoxycarbonyl)-2-(thiazol-2-yl)-3,6-dihydropyrimidin-4-yl)-4,5,6,7-tetrahydro-2H-indazol-2-yl)propanoic acid], the EC50 in the data set with HBV (setting [2]) came to 72.4 nM. The CC50 at 6 days in data set [1] amounted to 33200 nM.

On to `COC(=O)C1=C(C2CCc3[nH]ncc3C2)NC(c2nccs2)=NC1c1ccc(F)c(F)c1Cl` (single isomer, unassigned) [Compound 65a, Methyl 4-(2-chloro-3,4-difluorophenyl)-6-(4,5,6,7-tetrahydro-1H-indazol-5-yl)-2-(thiazol-2-yl)-1,4-dihydropyrimidine-5-carboxylate], for which the EC50 in the data set with HBV came to 56.3 nM. For the same compound, half-maximal cytotoxicity in data set [1] (CC50 at 6 days) was put at 11800 nM.

`CCOC(=O)C1=C(C2CCc3oc(CCC(=O)O)nc3C2)NC(c2nccs2)=NC1c1ccc(F)c(F)c1Cl` (single isomer, unassigned) [Compound 57c, 3-(5-(6-(2-Chloro-3,4-difluorophenyl)-5-(ethoxycarbonyl)-2-(thiazol-2-yl)-3,6-dihydropyrimidin-4-yl)-4,5,6,7-tetrahydrobenzo[d]oxazol-2-yl)propanoic acid]: the EC50 in the data set with HBV turned out to be 12.5 nM. In data set [1], this compound gave a CC50 at 6 days of 7700 nM.

Take `CCOC(=O)C1=C(C2Cc3cn(CCC(=O)O)nc3C(C)(C)C2)NC(c2nccs2)=NC1c1ccc(F)c(F)c1Cl` (stereo not shown) [Compound 55a, 3-(5-(6-(2-chloro-3,4-difluorophenyl)-5-(ethoxycarbonyl)-2-(thiazol-2-yl)-3,6-dihydropyrimidin-4-yl)-7,7-dimethyl-4,5,6,7-tetrahydro-2H-indazol-2-yl)propanoic acid]: in the data set with HBV, the EC50 worked out at 81 nM. The CC50 at 6 days in data set [1] worked out at 8500 nM.

As for `COC(=O)C1=C(C2CCc3nc(CCC(=O)O)ncc3C2)NC(c2nccs2)=NC1c1ccc(F)c(F)c1Cl` (stereo not shown) [Compound 64, 3-(6-(6-(2-Chloro-3,4-difluorophenyl)-5-(methoxycarbonyl)-2-(thiazol-2-yl)-3,6-dihydropyrimidin-4-yl)-5,6,7,8-tetrahydroquinazolin-2-yl)propanoic acid], the EC50 with HBV (setting [2]) stood at 70 nM. The CC50 at 6 days in data set [1] amounted to 26400 nM.

With `CCOC(=O)C1=C(C2CCc3[nH]ncc3C2)NC(c2nccs2)=NC1c1ccc(F)c(F)c1Cl` (stereo not shown) [Compound 66, Ethyl 4-(2-chloro-3,4-difluorophenyl)-6-(4,5,6,7-tetrahydro-1H-indazol-5-yl)-2-(thiazol-2-yl)-1,4-dihydropyrimidine-5-carboxylate], the EC50 in the data set on HBV (setting [2]) came to 64.7 nM. Moreover, the CC50 at 6 days in data set [1] was 6400 nM.

As for `COC(=O)C1=C(C2CCc3nn(CCC(=O)O)cc3C2)NC(c2nccs2)=NC1c1cccc(F)c1Cl` (single isomer, unassigned) [Compound 44b, 3-(5-(6-(2-Chloro-3-fluorophenyl)-5-(methoxycarbonyl)-2-(thiazol-2-yl)-3,6-dihydropyrimidin-4-yl)-4,5,6,7-tetrahydro-2H-indazol-2-yl)propanoic acid], the EC50 with HBV was found to be 383 nM. The compound further had a CC50 at 6 days in data set [1] of 21000 nM.

As for `CCOC(=O)C1=C(C2CCc3nc(CCC(=O)O)sc3C2)NC(c2nccs2)=NC1c1ccc(F)c(F)c1Cl` (single isomer, unassigned) [Compound 60b, 3-(6-(6-(2-Chloro-3,4-difluorophenyl)-5-(ethoxycarbonyl)-2-(thiazol-2-yl)-3,6-dihydropyrimidin-4-yl)-4,5,6,7-tetrahydrobenzo[d]thiazol-2-yl)propanoic acid], the EC50 in the data set on HBV (setting [2]) amounted to 24.1 nM. This compound also returned a CC50 at 6 days in data set [1] of 3400 nM.

Regarding `COC(=O)C1=C(C2CCc3nn(CCCC(=O)O)cc3C2)NC(c2nccs2)=NC1c1ccc(F)c(F)c1Cl` (single isomer, unassigned) [Compound 74B, 4-(5-(6-(2-chloro-3,4-difluorophenyl)-5-(methoxycarbonyl)-2-(thiazol-2-yl)-3,6-dihydropyrimidin-4-yl)-4,5,6,7-tetrahydro-2H-indazol-2-yl)butanoic acid], the EC50 in the data set on HBV is 66.1 nM. For the same compound, the CC50 at 6 days in data set [1] worked out at 19600 nM.

As to `CCOC(=O)C1=C(C2CCc3nn(CCC(=O)O)cc3C2)NC(c2nccs2)=NC1c1ccc(F)c(F)c1C` (single isomer, unassigned) [Compound 35b, 3-(5-(6-(3,4-Difluoro-2-methylphenyl)-5-(ethoxycarbonyl)-2-(thiazol-2-yl)-3,6-dihydropyrimidin-4-yl)-4,5,6,7-tetrahydro-2H-indazol-2-yl)propanoic acid], the EC50 in the data set on HBV is 95.8 nM. In data set [1], this compound came in with a CC50 at 6 days of 20700 nM.

For the compound `COC(=O)C1=C(C2CCc3nn(CCC(=O)O)cc3C2)NC(c2nccs2)=NC1c1cccc(F)c1Br` (single isomer, unassigned) [Compound 45b, 3-(5-(6-(2-Bromo-3-fluorophenyl)-5-(methoxycarbonyl)-2-(thiazol-2-yl)-3,6-dihydropyrimidin-4-yl)-4,5,6,7-tetrahydro-2H-indazol-2-yl)propanoic acid], the EC50 in the data set with HBV is 213 nM. Besides, the CC50 at 6 days in data set [1] was determined as 18200 nM.

On to `CCOC(=O)C1=C(C2CCc3nn(CCC(=O)O)cc3C2)NC(c2nccs2)=NC1c1cccc(F)c1Cl` (single isomer, unassigned) [Compound 40b, 3-(5-(6-(2-Chloro-3-fluorophenyl)-5-(ethoxycarbonyl)-2-(thiazol-2-yl)-3,6-dihydropyrimidin-4-yl)-4,5,6,7-tetrahydro-2H-indazol-2-yl)propanoic acid], for which the EC50 with HBV amounted to 480 nM. The compound further gave a CC50 at 6 days in data set [1] of 21500 nM.

For the compound `CCOC(=O)C1=C(C2CCc3nn(CCC(=O)O)cc3C2)NC(c2ncc(F)cc2F)=NC1c1ccc(F)c(F)c1Cl` (single isomer, unassigned) [Compound 43b, 3-(5-(6-(2-Chloro-3,4-difluorophenyl)-2-(3,5-difluoropyridin-2-yl)-5-(ethoxycarbonyl)-3,6-dihydropyrimidin-4-yl)-4,5,6,7-tetrahydro-2H-indazol-2-yl)propanoic acid], the half-maximal effective concentration (EC50) in the data set on HBV came to 125 nM. In data set [1], this compound gave a CC50 at 6 days of 31300 nM.

Consider `COC(=O)C1=C(C2CCc3nn(CCC(=O)O)cc3C2)NC(c2nccs2)=NC1c1ccc(F)c(F)c1C` (stereo not shown) [Compound 76c, 3-(5-(6-(3,4-difluoro-2-methylphenyl)-5-(methoxycarbonyl)-2-(thiazol-2-yl)-3,6-dihydropyrimidin-4-yl)-4,5,6,7-tetrahydro-2H-indazol-2-yl)propanoic acid], for which the EC50 in the data set on HBV (setting [2]) was determined as 13 nM. The compound further returned a CC50 at 6 days in data set [1] of 16100 nM.

In the case of `CCOC(=O)C1=C(C2CCc3nn(CCC(=O)O)cc3C2)NC(c2nccs2)=NC1c1ccc(F)cc1Br` (single isomer, unassigned) [Compound 39b, 3-(5-(6-(2-Bromo-4-fluorophenyl)-5-(ethoxycarbonyl)-2-(thiazol-2-yl)-3,6-dihydropyrimidin-4-yl)-4,5,6,7-tetrahydro-2H-indazol-2-yl)propanoic acid], the EC50 with HBV amounted to 165 nM. In addition, the CC50 at 6 days in data set [1] was determined as 13100 nM.

For `CCOC(=O)C1=C(C2CCc3nn(CCC(C)(C)C(=O)O)cc3C2)NC(c2nccs2)=NC1c1ccc(F)c(F)c1Cl` (stereo not shown) [Compound 88d, 4-(5-(6-(2-Chloro-3,4-difluorophenyl)-5-(ethoxycarbonyl)-2-(thiazol-2-yl)-3,6-dihydropyrimidin-4-yl)-4,5,6,7-tetrahydro-2H-indazol-2-yl)-2,2-dimethylbutanoic acid], the EC50 in the data set with HBV (setting [2]) is 20.8 nM. Besides, the CC50 at 6 days in data set [1] stood at 9800 nM.

In the case of `CCOC(=O)C1=C(C2CCc3nn(CCC(=O)O)cc3C2)NC(c2nccs2)=NC1c1ccc(F)cc1Br` (single isomer, unassigned) [Compound 39c, 3-(5-(6-(2-Bromo-4-fluorophenyl)-5-(ethoxycarbonyl)-2-(thiazol-2-yl)-3,6-dihydropyrimidin-4-yl)-4,5,6,7-tetrahydro-2H-indazol-2-yl)propanoic acid], the EC50 in the data set on HBV was 14.5 nM. In the data set with HepG2.2.15 cells, this compound displayed a CC50 of 11900 nM.

As for `COC(=O)C1=C(C2CCc3nn(CCC(=O)O)cc3C2)NC(c2nccs2)=NC1c1ccc(F)cc1Cl` (single isomer, unassigned) [Compound 47c, 3-(5-(6-(2-Chloro-4-fluorophenyl)-5-(methoxycarbonyl)-2-(thiazol-2-yl)-3,6-dihydropyrimidin-4-yl)-4,5,6,7-tetrahydro-2H-indazol-2-yl)propanoic acid], the EC50 in the data set on HBV was 147 nM. In the data set on HepG2.2.15 cells, the CC50 is > 100000 nM.
